In BindingDB's records for doi:10.1074/jbc.M113.476473 (Uppsala University, 2013):

Experiments:
Pantothenate kinase [1] = target: T1, Pantothenate kinase (Mycobacterium tuberculosis (strain ATCC 25618 / H37Rv), UniProt P9WPA7); test: Biochemical Assay (ATP at Km)
T1 sequence (P9WPA7 whole entry): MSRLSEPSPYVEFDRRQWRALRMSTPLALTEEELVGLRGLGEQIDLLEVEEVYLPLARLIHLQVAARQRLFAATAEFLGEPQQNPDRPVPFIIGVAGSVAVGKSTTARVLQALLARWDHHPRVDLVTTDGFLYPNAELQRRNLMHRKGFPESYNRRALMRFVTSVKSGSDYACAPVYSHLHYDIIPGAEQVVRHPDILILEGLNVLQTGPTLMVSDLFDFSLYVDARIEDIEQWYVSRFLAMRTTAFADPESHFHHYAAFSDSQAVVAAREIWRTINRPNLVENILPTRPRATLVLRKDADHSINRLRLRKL
Protocol: Briefly, MtPanK activity was measured in a pyruvate kinaselactate dehydrogenase-coupled assay where the reaction rate was determined by spectrophotometric measurement of NADH consumption. IC50 measurements were performed with a suitable concentration range of inhibitory compound, while keeping the concentration of pantothenate and ATP at 122 and 395 µM, respectively, which is their respective Km.

Pantothenate kinase [2] = target: T1, Pantothenate kinase; test: Biochemical Assay (ATP at 50x Km)
Protocol: Briefly, MtPanK activity was measured in a pyruvate kinaselactate dehydrogenase-coupled assay where the reaction rate was determined by spectrophotometric measurement of NADH consumption. A second set of IC50 measurements were performed with the ATP concentration at 50× Km, to determine the effect of cofactor competition.

Compound | IC50 (Pantothenate kinase [1]) [nM] | IC50 (Pantothenate kinase [2]) [nM]
N#Cc1ccc(-c2ccc(COC(=O)O)cc2CN2CCN(c3ccccn3)CC2)cc1 [Biaryl 2a] | 120 | 130
N#Cc1ccc(-c2ccc(OCC(N)=O)cc2CN2CCN(c3ccccn3)CC2)cc1 [Biaryl 2b] | 550 | –
CC(NC(=O)c1ccccc1C(F)(F)F)c1nnc(SCCOc2ccc(F)cc2)n1C (stereo not given) [Triazole 1a] | 90 | 5500
CC(NC(=O)c1ccccc1Cl)c1nnc(SCCOc2ccc(F)cc2)n1C (stereo not given) [Triazole 1b] | 1130 | > 12500
CC(NC(=O)c1ccccc1C(F)(F)F)c1nnc(SCc2ccc(F)cc2)n1C (stereo not given) [Triazole 1c] | 150 | 10400
Cc1ccccc1OCCSc1nnc(C(C)NC(=O)c2ccccc2C(F)(F)F)n1C (stereo not given) [Triazole 1d] | 140 | 2820
CC(NC(=O)c1ccccc1C(F)(F)F)c1nnc(SCCOc2ccc(F)cc2)n1Cc1ccc(F)cc1 (stereo not given) [Triazole 1e] | 50 | 690
CC(NC(=O)c1c(F)cccc1F)c1nnc(SCCOc2ccc(F)cc2)n1C (stereo not given) [Triazole 1f] | 1090 | 14000
